Assay results: US20060148646A1, “Controlled release fertilizers containing calcium sulfate and processes for making same” (priority 2004, published 2006)

Legend:
[1] = tested on: Hybrid “419” Bermudagrass; assay: Visual turf quality rating, golf course fairway (Example 18); type: in vivo
Experimental: (§1) The effect of nitrogen type was evaluated on the quality of hybrid bermudagrass grown under golf course conditions. Five fertilizer compositions were tested which included […] of the present invention, urea and Scotts Turf Builder. Nitrogen sources were applied individually at a rate of 1 lb N/1,000 ft^2 on Apr. 19, 2004. Field test plots were rated weekly for visual quality and scanned for digital image analysis.
(§2) Research was conducted on a fairway at Pleasant Valley Country Club in Little Rock, Arkansas. The hybrid “419” was bermudagrass was grown and was mowed at 0.5 inches height and clippings were not collected. Nitrogen sources were applied at a rate of 1 lb N/1,000 ft^2 on Apr. 19, 2004. Plots were 3 ft.×6 ft. Air temperatures on April 19th were 65-75° F. Turf quality ratings were made weekly by a single evaluator. Quality ratings considered turf growth and color. A rating of 6 was considered the minimum acceptable turf; a rating of 9 was not considered favorable from a management standpoint since growth was excessive and required frequent mowing. A visual rating of 8 would be considered excellent. Plots were also evaluated weekly using a digital image analysis. Digital images were taken with a Nikon CoolPix 880 camera with a shutter speed of 1/30 sec. and an aperture of f/2.8. Images were downloaded to a personal computer for subsequent analysis. Ratings were terminated when the nitrogen treated plots could not be visually separated from the control. Treatments consisted of 4 single plot replications. The experimental design was a completely randomized design.

[2] = Controlled Release Soil Test (irrigated soil burial test); type: physicochemical
Description: To measure the relative solubilities of the products in soil, an irrigated soil burial test (“Controlled Release Soil Test”) was devised such that granules could be retrieved for measurement of their nitrogen content. The following is a description of the test.
Controlled Release Soil Test
Procedure for Controlled Release Soil Test
1. Screen the sample to obtain −6+7 Tyler mesh granules for the test.
2. Label a freezer container with the test description.
3. Place the freezer container on the 1200 g balance and tare out.
4. Place 300 g of potting soil with a 40% moisture content into the container and record the weight.
5. Over the soil place two (2) pieces of fiberglass mesh with 14 meshes to the inch and 1/16 inch openings.
6. Tare out the container with the soil and fiberglass mesh screens.
7. Spread 5 grams of −6+7 Tyler mesh granules over the screen in a single layer and record the weight.
8. Place a large square of fiberglass mesh over the granules, with a stainless steel screen cut to fit over it, so that the shape of the container has been mirrored.
9. Once this is shaped, tare out the container and add 150 g of soil and record the weight.
10. Repeat this process for each sample to be tested (in triplet if possible).
11. After all containers are completed, fill a mist spray bottle with de-ionized water and prime.
12. Tare out the weight of the primed mist bottle.
13. Mist 4 g of water into each container and immediately place the lid on container and seal.
14. After the fertilizer granules have been submerged in a humid soil environment for the allotted time (9 hours, 24 hours, and 3 days), the 150 g of soil is removed from the container.
15. Weigh to the nearest 0.0001 g in aluminum weigh pan and tare out.
16. Gently remove the two pieces of fiberglass mesh, which contains the remaining fertilizer granules.
17. Transfer the granules to the aluminum weigh pan and record the weight of the fertilizer granules.
18. Place the fertilizer granules in a laboratory oven to dry at low temperature (50° C.) for 13 hours.
19. Remove the dry sample from the oven, weigh to the nearest 0.0001 g and record weight.
20. Place the dry fertilizer sample into a 125 mL plastic sample bottle containing 20 g of de-ionized water.
21. Allow the sample to dissolve for 3 hours.
22. Place approximately 1 ml aliquot of the sample solution onto the sample stage of a refractometer (e.g., Abbe Refractometer).
23. Record the refractive index and temperature of the solution.
24. Calculate the percent urea retained from the original fertilizer sample.
To measure the slow or controlled release of the present compositions a Controlled Release Soil Test was employed, described as follows. […]

[3] = tested on: Hybrid “419” Bermudagrass; assay: Digital image analysis, measured color hue (Example 18); type: in vivo; design: unit not given here; settings: mean of 4 repetitions; fertilizer applied Apr. 19, 2004
Experimental: as §1, §2

[4] = 1 lb N/1,000 ft^2 applied Apr. 19, 2004

SMILES: NC(N)=O [Urea, Carbamide]
- Visual Turf Quality Jun. 1, 2004 [1, 4]: 7.7 cde
- Visual Turf Quality Jun. 7, 2004 [1, 4]: 7.7bcde
- Visual Turf Quality Jun. 14, 2004 [1, 4]: 7.6bcd
- Visual Turf Quality Jun. 21, 2004 [1, 4]: 7.5bc
- Visual Turf Quality May 3, 2004 [1, 4]: 7.5abcd
- Visual Turf Quality May 9, 2004 [1, 4]: 7.3bcd
- Visual Turf Quality May 16, 2004 [1, 4]: 7.5abcd
- Visual Turf Quality May 24, 2004 [1, 4]: 7.7bcdef
- Visual Turf Quality Apr. 19, 2004 ([1]; day of application, 1 lb N/1,000 ft^2, 6 = minimum acceptable, 8 excellent): 6.5
- time to complete dissolution in the Controlled Release Soil Test [2]: ≤ 9 h
- Hue Jun. 1, 2004 [3]: 31.589
- Hue Jun. 7, 2004 [3]: 27.101
- Hue Jun. 14, 2004 [3]: 28.324
- Hue Jun. 21, 2004 [3]: 25.750
- Hue May 3, 2004 [3]: 29.085
- Hue May 10, 2004 [3]: 30.702
- Hue May 17, 2004 [3]: 30.920
- Hue May 24, 2004 [3]: 29.943

SMILES: N.N.O=S(=O)(O)O [AS, (NH4)2SO4]
- Control Release Soil Test 9 HR (nitrogen retained) ([2]; ammonium sulfate based granulation products, 9 hours): 56.8%
- Control Release Soil Test 24 HR (nitrogen retained) ([2]; ammonium sulfate based granulation products, 24 hours): 30.0%
- Control Release Soil Test 3 DAY (nitrogen retained) ([2]; ammonium sulfate based granulation products, 3 days): 0%
